Experimental data published in BindingDB's records for PubMed 3033464 (Burroughs Wellcome, 1987).
Several values for one entry are separate records, joined by “and”; a condition that tells them apart may be missing. Equal entries are not always repeated. Where a SMILES comes first, the peptide text is derived from it.

Target: Mu-type opioid receptor (Rattus norvegicus, UniProt P33535)
Sequence (P33535 whole entry): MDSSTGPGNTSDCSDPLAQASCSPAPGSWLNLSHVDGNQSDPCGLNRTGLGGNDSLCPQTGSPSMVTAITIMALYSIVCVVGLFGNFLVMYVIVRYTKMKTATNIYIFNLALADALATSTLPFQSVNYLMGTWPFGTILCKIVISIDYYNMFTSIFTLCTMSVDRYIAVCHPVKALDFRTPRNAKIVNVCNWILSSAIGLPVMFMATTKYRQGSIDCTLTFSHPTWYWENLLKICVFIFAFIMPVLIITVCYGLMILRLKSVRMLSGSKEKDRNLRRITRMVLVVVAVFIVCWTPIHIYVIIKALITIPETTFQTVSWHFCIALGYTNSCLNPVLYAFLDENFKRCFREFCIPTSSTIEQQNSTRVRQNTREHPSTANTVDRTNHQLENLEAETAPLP

Row | Compound | Ki
1 | CC(C)[C@H](NC(=O)[C@H](Cc1ccccc1)NC(=O)[C@@H]1CCCN1C(=O)[C@@H](N)Cc1ccc(O)cc1)C(N)=O (H-YPFV-NH2) | 37 nM and 16.1 nM
2 | NC(=O)[C@@H]1CCCN1C(=O)[C@H](Cc1ccccc1)NC(=O)[C@@H]1CCCN1C(=O)[C@@H](N)Cc1ccc(O)cc1 [CAS_79805-24-6] (H-YPFP-NH2) | 1160 nM
3 | NC(=O)[C@@H]1CCCN1C(=O)[C@@H](Cc1ccccc1)NC(=O)[C@@H]1CCCN1C(=O)[C@@H](N)Cc1ccc(O)cc1 [Morphiceptin] (HELM PEPTIDE1{Y.P.[dF].P.[am]}$$$$V2.0) | 63 nM and 34.9 nM
